Assay results from patent US9688699B2, “3-(pyrimidine-2-yl)imidazo[1,2-a]pyridines” (Bayer Pharma Aktiengesellschaft, priority 2014, dated 2017).
Structures can show the parent of a compound that is named as a salt.

Experiments:
[1] = target: T1, human phosphodiesterase 5 (PDE 5) (Homo sapiens, UniProt O76074); assay: Inhibition of human phosphodiesterase 5 (PDE 5) (B-3); assay type: biochemical; settings: PDE 5 preparation from human platelets; [8-3H] cGMP substrate, SPA; in some cases means of individual determinations
T1 construct: PDE 5 preparations are obtained from human platelets by disruption; from tissue; host or cells: human platelets (Mono Q ion exchange fractions with PDE 5 activity)
Description: B-3. Inhibition of Human Phosphodiesterase 5 (PDE 5)
PDE 5 preparations are obtained from human platelets by disruption (Microfluidizer®, 800 bar, 3 passes), followed by centrifugation (75 000 g, 60 min, 4° C.) and ion exchange chromatography of the supernatant on a Mono Q 10/10 column (linear sodium chloride gradient, elution with a 0.2-0.3M solution of sodium chloride in buffer (20 mM Hepes pH 7.2, 2 mM magnesium chloride). Fractions having PDE 5 activity are combined (PDE 5 preparation) and stored at −80° C.
To determine their in vitro action on human PDE 5, the test substances are dissolved in 100% DMSO and serially diluted. Typically, dilution series (1:3) from 200 μM to 0.091 μM are prepared (resulting final concentrations in the test: 4 μM to 0.0018 μM). In each case 2 μl of the diluted substance solutions are placed into the wells of microtitre plates (Isoplate-96/200 W; Perkin Elmer). Subsequently, 50 μl of a dilution of the above-described PDE 5 preparation are added. The dilution of the PDE 5 preparation is chosen such that during the later incubation less than 70% of the substrate are converted (typical dilution: 1:100; dilution buffer: 50 mM tris/hydrochloric acid pH 7.5, 8.3 mM magnesium chloride, 1.7 mM EDTA, 0.2% BSA). The substrate, [8-^3H] cyclic guanosine-3′,5′-monophosphate (1 μCi/μl; Perkin Elmer), is diluted 1:2000 with assay buffer (50 mM tris/hydrochloric acid pH 7.5, 8.3 mM magnesium chloride, 1.7 mM EDTA) to a concentration of 0.0005 μCi/μl. By addition of 50 μl (0.025 μCi) of the diluted substrate, the enzyme reaction is finally started. The test mixtures are incubated at room temperature for 60 min and the reaction is stopped by adding 25 μl of a suspension of 18 mg/ml yttrium scintillation proximity beads in water (phosphodiesterase beads for SPA assays, RPNQ 0150, Perkin Elmer). The microtitre plates are sealed with a film and left to stand at room temperature for 60 min. Subsequently, the plates are analysed for 30 s per well in a Microbeta scintillation counter (Perkin Elmer). IC50 values are determined using the graphic plot of the substance concentration against percentage PDE 5 inhibition.

[2] = target: T2, recombinant guanylate cyclase reporter cell line (Rattus norvegicus, UniProt P19686+P20595); assay: Effect on a recombinant guanylate cyclase reporter cell line (B-2); assay type: cell-based; settings: MEC = minimum effective concentration, in some cases mean values for individual determinations
T2 construct: expressed in transfected cells
T2 sequence (P19686 1-690): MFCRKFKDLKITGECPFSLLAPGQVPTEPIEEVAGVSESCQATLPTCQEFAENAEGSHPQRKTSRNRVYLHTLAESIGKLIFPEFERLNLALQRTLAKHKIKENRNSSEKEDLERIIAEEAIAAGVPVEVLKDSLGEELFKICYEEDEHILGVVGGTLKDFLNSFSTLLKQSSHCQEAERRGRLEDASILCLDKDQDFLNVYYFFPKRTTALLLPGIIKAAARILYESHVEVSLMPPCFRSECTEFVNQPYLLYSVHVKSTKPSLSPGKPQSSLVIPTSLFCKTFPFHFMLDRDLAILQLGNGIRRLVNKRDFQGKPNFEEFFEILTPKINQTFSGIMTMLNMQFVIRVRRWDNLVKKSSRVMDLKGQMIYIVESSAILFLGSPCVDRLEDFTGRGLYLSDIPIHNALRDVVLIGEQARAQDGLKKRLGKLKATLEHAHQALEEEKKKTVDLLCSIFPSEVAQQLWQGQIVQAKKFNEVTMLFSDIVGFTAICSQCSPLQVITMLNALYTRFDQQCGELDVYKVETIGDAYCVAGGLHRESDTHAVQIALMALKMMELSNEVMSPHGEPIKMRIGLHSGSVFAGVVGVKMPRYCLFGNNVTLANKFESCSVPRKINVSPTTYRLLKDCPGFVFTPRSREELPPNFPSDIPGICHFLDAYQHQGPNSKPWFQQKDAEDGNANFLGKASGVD
T2 sequence (P20595 1-619): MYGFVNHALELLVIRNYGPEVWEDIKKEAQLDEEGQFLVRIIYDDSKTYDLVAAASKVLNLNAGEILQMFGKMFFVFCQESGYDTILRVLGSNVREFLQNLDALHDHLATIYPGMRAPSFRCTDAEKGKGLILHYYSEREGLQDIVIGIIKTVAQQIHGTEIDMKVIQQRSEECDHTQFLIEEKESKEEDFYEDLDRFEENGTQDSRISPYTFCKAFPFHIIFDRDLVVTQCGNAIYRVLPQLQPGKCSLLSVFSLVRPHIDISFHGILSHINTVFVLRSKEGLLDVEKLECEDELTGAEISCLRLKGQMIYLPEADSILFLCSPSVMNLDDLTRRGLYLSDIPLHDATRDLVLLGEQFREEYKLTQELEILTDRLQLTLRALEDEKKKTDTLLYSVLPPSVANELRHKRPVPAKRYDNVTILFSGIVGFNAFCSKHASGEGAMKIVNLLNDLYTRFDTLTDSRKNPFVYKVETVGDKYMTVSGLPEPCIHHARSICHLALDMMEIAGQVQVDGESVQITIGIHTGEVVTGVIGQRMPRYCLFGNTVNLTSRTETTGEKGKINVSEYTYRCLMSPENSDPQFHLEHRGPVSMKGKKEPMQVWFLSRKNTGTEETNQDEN
Description: B-2. Effect on a Recombinant Guanylate Cyclase Reporter Cell Line
The cellular activity of the compounds according to the invention is determined using a recombinant guanylate cyclase reporter cell line, as described in F. Wunder et al., Anal. Biochem. 339, 104-112 (2005).
Representative MEC values (MEC=minimum effective concentration) for the compounds of the invention are shown in Table 1 below (in some cases as mean values for individual determinations): […]

SMILES	IC50 [1] [nM]	MEC [2] [µM]
Cc1nc2c(OCc3c(F)cccc3F)cccn2c1-c1nc(NCC(C)(C)O)c2c(n1)NC(=O)C2(C)C [Example 16, 2-{8-[(2,6-Difluorobenzyl)oxy]-2-methylimidazo[1,2-a]pyridin-3-yl}-4-[(2-hydroxy-2-methylpropyl)amino]-5,5-dimethyl-5,7-dihydro-6H-pyrrolo[2,3-d]pyrimidin-6-one]	4.8	0.65
Cc1nc2c(OCc3c(F)ccc(F)c3F)cccn2c1-c1nc2c(c(C(=O)N3CC(N)C(F)(F)C3)n1)C(C)(C)C(=O)N2 (racemic) [Example 61, rac-4-[(4-amino-3,3-difluoropyrrolidin-1-yl)carbonyl]-5,5-dimethyl-2-{2-methyl-8-[(2,3,6-trifluorobenzyl)oxy]imidazo[1,2-a]pyridin-3-yl}-5,7-dihydro-6H-pyrrolo[2,3-d]pyrimidin-6-one trifluoroacetate]	730	3
Cc1nc2c(OCc3c(F)cccc3F)cccn2c1-c1nc2c(c(N3CCC[C@H]3CO)n1)C(C)(C)C(=O)N2 [Example 36, 2-{8-[(2,6-difluorobenzyl)oxy]-2-methylimidazo[1,2-a]pyridin-3-yl}-4-[(2S)-2-(hydroxymethyl)pyrrolidin-1-yl]-5,5-dimethyl-5,7-dihydro-6H-pyrrolo[2,3-d]pyrimidin-6-one]	20	0.3
Cc1nc2c(OCc3c(F)ccc(F)c3F)cccn2c1-c1nc2c(c(C(=O)N3CCNCC3)n1)C(C)(C)C(=O)N2 [Example 64, 5,5-dimethyl-2-{2-methyl-8-[(2,3,6-trifluorobenzyl)oxy]imidazo[1,2-a]pyridin-3-yl}-4-(piperazin-1-ylcarbonyl)-5,7-dihydro-6H-pyrrolo[2,3-d]pyrimidin-6-one trifluoroacetate]	28	10
Cc1nc2c(OCc3c(F)cccc3F)cccn2c1-c1nc(I)c2c(n1)NC(=O)C2(C)C [Example 2, 2-{8-[(2,6-Difluorobenzyl)oxy]-2-methylimidazo[1,2-a]pyridin-3-yl}-4-iodo-5,5-dimethyl-5,7-dihydro-6H-pyrrolo[2,3-d]pyrimidin-6-one]	300	5.3
Cc1nc2c(OCc3c(F)cccc3F)cccn2c1-c1nc2c(c(C(=O)O)n1)C(C)(C)C(=O)N2 [Example 51, 2-{8-[(2,6-Difluorobenzyl)oxy]-2-methylimidazo[1,2-a]pyridin-3-yl}-5,5-dimethyl-6-oxo-6,7-dihydro-5H-pyrrolo[2,3-d]pyrimidine-4-carboxylic acid]	430	10
CCCC(C)(N)CNc1nc(-c2c(C)nc3c(OCc4c(F)cccc4F)cccn23)nc2c1C(C)(C)C(=O)N2 (racemic) [Example 13, rac-4-[(2-Amino-2-methylpentyl)amino]-2-{8-[(2,6-difluorobenzyl)oxy]-2-methylimidazo[1,2-a]pyridin-3-yl}-5,5-dimethyl-5,7-dihydro-6H-pyrrolo[2,3-d]pyrimidin-6-one (racemate)]	12	1
Cc1nc2c(OCc3c(F)ccc(F)c3F)cccn2c1-c1nc(N)c2c(n1)NC(=O)C2(C)C [Example 9, 4-Amino-5,5-dimethyl-2-{2-methyl-8-[(2,3,6-trifluorobenzyl)oxy]imidazo[1,2-a]pyridin-3-yl}-5,7-dihydro-6H-pyrrolo[2,3-d]pyrimidin-6-one]	17	1
Cc1nc2c(OCc3c(F)cccc3F)cccn2c1-c1nc(N)c2c(n1)NC(=O)C2(C)C [Example 1, 4-Amino-2-{8-[(2,6-difluorobenzyl)oxy]-2-methylimidazo[1,2-a]pyridin-3-yl}-5,5-dimethyl-5,7-dihydro-6H-pyrrolo[2,3-d]pyrimidin-6-one]	34	0.3
Cc1nc2c(OCc3c(F)cccc3F)cccn2c1-c1nc(NCC(C)(N)C(F)(F)F)c2c(n1)NC(=O)C2(C)C (racemic) [Example 40, rac-4-[(2-Amino-3,3,3-trifluoro-2-methylpropyl)amino]-2-{8-[(2,6-difluorobenzyl)oxy]-2-methylimidazo[1,2-a]pyridin-3-yl}-5,5-dimethyl-5,7-dihydro-6H-pyrrolo[2,3-d]pyrimidin-6-one]	14	3
Cc1nc2c(OCc3c(F)cccc3F)cccn2c1-c1nc(NCC(C)(C)N)c2c(n1)NC(=O)C2(C)C [Example 12, 4-[(2-Amino-2-methylpropyl)amino]-2-{8-[(2,6-difluorobenzyl)oxy]-2-methylimidazo[1,2-a]pyridin-3-yl}-5,5-dimethyl-5,7-dihydro-6H-pyrrolo[2,3-d]pyrimidin-6-one]	3.6	0.2
Cc1nc2c(OCc3c(F)cccc3F)cccn2c1-c1nc(NCC(O)C(F)(F)F)c2c(n1)NC(=O)C2(C)C (racemic) [Example 18, rac-2-{8-[(2,6-difluorobenzyl)oxy]-2-methylimidazo[1,2-a]pyridin-3-yl}-5,5-dimethyl-4-[(3,3,3-trifluoro-2-hydroxypropyl)amino]-5,7-dihydro-6H-pyrrolo[2,3-d]pyrimidin-6-one]	19	1
Cc1nc2c(OCc3c(F)cccc3F)cccn2c1-c1nc(NCC(C)(C)N)c2c(n1)NC(=O)C2(C)C(F)(F)F (racemic) [Example 41, rac-4-[(2-Amino-2-methylpropyl)amino]-2-{8-[(2,6-difluorobenzyl)oxy]-2-methylimidazo[1,2-a]pyridin-3-yl}-5-methyl-5-(trifluoromethyl)-5,7-dihydro-6H-pyrrolo[2,3-d]pyrimidin-6-one]	1.7	0.1
Cc1nc2c(OCc3c(F)cccc3F)cccn2c1-c1nc2c(c(-n3cc(O)cn3)n1)C(C)(C)C(=O)N2 [Example 43, 2-{8-[(2,6-Difluorobenzyl)oxy]-2-methylimidazo[1,2-a]pyridin-3-yl}-4-(4-hydroxy-1H-pyrazol-1-yl)-5,5-dimethyl-5,7-dihydro-6H-pyrrolo[2,3-d]pyrimidin-6-one]	5.5	3
